Some results are limits rather than exact numbers.

Test [1] relates to ovarian cancer A2780 cells. Nature of the test: Apoptosis (cleaved PARP) in A2780 cells. The settings on record: 21 hours of exposure. In kind it is cell-based, human. From the text: […] Lysate preparation and western blot were the same as described above. Apoptosis was detected by immunoblotting with rabbit anti-PARP antibodies.
For the next test, the system named is U87MG. Nature of the test: Proliferation assay U87MG. In kind it is cell-based. The settings on record: Homo sapiens, U-87 MG, Glioma, 72 hours. As for the experimental part: (§1) Various cancer cell lines (listed in table 1) were plated at a density of 1000-5000 cells/well in 96-well plates in 90111 growth medium containing 10% FCS, 100 units/ml penicillin and 100 μg/ml streptomycin. Inhibitors were added a day later in 10 μl of 1% DMSO in DDW to obtain final concentrations of 0, 0.1, 0.3, 1, 3, and 10 μM. The final concentration of DMSO (0.1% DMSO) was kept constant in all samples. Medium with inhibitors was refreshed a day and two days later. Following exposure of the cells to the inhibitors for 72 hours at 37° C., the cells were fixed in 0.5% gluteraldehyde in medium for 10 min, washed three times with DDW, once with 0.1M sodium borate buffer pH 8.5 and stained with 1% methylene blue dissolved in 0.1M borate buffer solution for 60 min. Excess dye was washed out and cell-bound dye was eluted with 200 μl/well of 0.1 M HCl. The optical density value was read at 620 nm in ELISA plate reader. The data was analyzed in Microsoft Excel, using the vehicle control as 100% proliferation. The assays were performed in triplicates. The values in table 1 represent IC50 values derived from the dose-dependent growth curves obtained.
(§2) Compounds 6, 7, 8, and 9 were tested for their inhibitory potential in cell proliferation assay. In this assay cells were exposed to increasing concentrations of the molecules (at 0.1% DMSO in all wells) a day after seeding. Medium and inhibitors were refreshed every day, and following three days of treatment, cells were fixed and stained with methylene-Blue. IC50 values were determined from the curves of the optical density against compound concentration. The assay was performed in triplicates.

The subject of another test is PC3-MM2. Briefly: Proliferation assay PC3-MM2. The settings on record: Homo sapiens, PC3MM2, Prostate, 72 hours. In kind it is cell-based. As for the experimental part: as §1, §2
For the next test, the system named is T47D. Nature of the test: Proliferation assay T47D. In kind it is cell-based. To be noted: Homo sapiens, Breast, 72 hours. Here is the method: as §1, §2
For test [2], the system named is metastatic melanoma YUMAC cells. Nature of the test: Apoptosis (cleaved PARP) in YUMAC cells. In kind it is cell-based, human. To be noted: 24 hours of exposure, 3 μM. As for the experimental part:
(§3) In addition, lysates were prepared from cells exposed to inhibitors at various concentrations for 24 hours in the presence or the absence of FCS without stimulation. Lysate preparation and western blot were the same as described above. Apoptosis was detected by immunoblotting with rabbit anti-PARP antibodies.

For a further test, the system named is OVCAR3. Nature of the test: Proliferation assay OVCAR3. In kind it is cell-based. To be noted: Homo sapiens, OVCAR-3, Ovarian, 72 hours. As for the experimental part:
as §1, §2

Another test concerns MO59J. Nature of the test: Proliferation assay MO59J. In kind it is cell-based. The settings on record: Glioma, 72 hours. As for the experimental part:
as §1, §2

The next test relates to A2780. Nature of the test: Proliferation assay A2780. In kind it is cell-based. To be noted: Homo sapiens, Ovarian, 72 hours. As for the experimental part: as §1, §2
The next test has as its system IRS1. Nature of the test: IRS1 Ser-phosphorylation and IRS1 levels in MCF7 cells. To be noted: breast cancer MCF7 cells. In kind it is cell-based. Here is the method:
Tyrosine autophosphorylation of the β-subunit of IGF1R as well as downstream signaling induced by IGF1R were assayed in breast cancer MCF7 cells. Tyrosine autophosphorylation of the EGFR and the EGFR signaling was assayed in prostate cancer PC3 cells. Tyrosine autophosphorylation of the PDGFR and its signaling was assayed in fibroblasts overexpres sing PDGFR. Tyro sine autophosphorylation of the IR and its signaling was assayed in fibroblasts overexpressing IR. Cells were seeded in 6-well plates (MCF7-250,000 cells/well, PC3-150,000 cells/well, fibroblasts-140,000 cells/well) and 24 hours later medium was replaced by serum-free medium (DMEM supplemented with 100 units/ml penicillin and 100 μg/ml streptomycin). Following 20 hours of serum-starvation medium was replaced with medium containing various concentrations of the inhibitors in 0.1% DMSO for additional 4 hours. Cells were then stimulated for 5 min with 50 ng/ml IGF-1 (MCF7 cells), 20 ng/ml EGF (PC3 cells), 50 ng/ml PDGF (fibroblasts overexpressing PDGFR) or 100 nM insulin (fibroblasts overexpressing IR), washed twice with PBS and lysed by boiling sample buffer (10% glycerol, 50 mM Tris-HCl, pH 6.8, 3% SDS, and 5%, β-mercaptoethanol). Equal amounts of protein per lane were separated by 8% SDS-PAGE and transferred to a nitrocellulose membrane (Sartorius AG). Phosphorylated proteins were immunoblotted with anti-phospho-IGF1R (phosphor-IGF1R), anti-phosphotyrosine-IRS1 (phospho-IRS1), anti-phospho(T308)Akt (phospho-PKB), anti-phospho-Erk (phospho-ERK), anti-phosphotyrosine 4G10&PY20 (pY-EGFR or pY-PDGFR), anti-phospho-Ser^636/639-IRS1 (pS^636/639-IRS1) and anti-phospho-STAT3 (phospho-STAT3) antibodies. Detection was performed with horseradish peroxidase-conjugated secondary antibody using the ECL system. Blots were then stripped of antibodies, blocked with TBST with 5% low fat milk and re-probed with antibodies detecting both the phosphorylated and the non-phosphorylated corresponding proteins e.g. IGF1Rβ, IRS1, PKB, ERK, IRβ, PDGFR and Stat3.
as §3

Another test has as its system B16. Nature of the test: Clonogenic assay B16. In kind it is cell-based. To be noted: Mus musculus, Melanoma. Here is the method:
Various cancer cells (listed in table 1) were seeded at a very low concentration (19 cells/well in 96-well plates or 63 cells/well in 24-well plates) in growth medium. A day later medium was replaced with growth medium containing various concentrations of inhibitors in a final concentration of 0.1% DMSO. The inhibitor-containing medium was refreshed three times a week. Following approximately two weeks cells were fixed by adding Gluteraldehide (0.5% final concentration) for 10 min, washed three time with DDW, once with borate buffer 0.1M and stained for 1 hour with 1% Methylene Blue in borate buffer 0.1M. Access stain was washed with water, and following drying colonies were counted. Alternatively, stain was extracted by 0.1N HCl for 1 hour and absorbance at 620 nm was measured by ELISA Reader. The assays were performed in triplicates. The values in table 1 represent IC50 values derived from the dose-dependent growth curves obtained.

The IC50 is the concentration that inhibits the measured activity by half. As for `Oc1cc(CNC(=S)/C=C/c2cc(O)c(O)c(Br)c2)cc(O)c1O` [Compound 9], the “Apoptosis (cleaved PARP detection)” value in [1] is “undergo apoptosis”. The IC50 stood at 6.6 µM in the test with U87MG; 6900 nM in the test with PC3-MM2; 1600 nM in the test with T47D; 900 nM in the test on OVCAR3; 900 nM in the test with MO59J; 400 nM in the test on A2780. The “Cleavage of PARP (apoptosis)” value in test [2] is reported as “detected”. Moreover, the “IRS1 Ser-phosphorylation” value with IRS1 is given as “trigger IRS1-ser phosphorylation”.
Regarding `N#C/C(=C\c1cc(O)c(O)c(I)c1)C(=S)NCc1cc(O)c(O)c(O)c1` [Compound 8], the “Apoptosis (cleaved PARP detection)” value in test [1] is given as “undergo apoptosis”. The half-maximal inhibitory concentration (IC50) was found to be 2.4 µM in the test with U87MG; 2100 nM with PC3-MM2; 2500 nM with T47D; 1900 nM with OVCAR3; 1600 nM in the test with MO59J; 600 nM in the test on A2780. In the test on B16, this compound gave a 50% inhibitory concentration (IC50) of 400 nM. Moreover, in test [2], the “Cleavage of PARP (apoptosis)” value was “detected”. The “IRS1 Ser-phosphorylation” value in the test on IRS1 is given as “trigger IRS1-ser phosphorylation”.
As for `N#C/C(=C\c1cc(O)c(O)c(Br)c1)C(=S)NCc1cc(O)c(O)c(O)c1` [Compound 7], the “Apoptosis (cleaved PARP detection)” value in [1] is “undergo apoptosis”. In addition, the IC50 with U87MG stood at 6.9 µM; with PC3-MM2, 2600 nM; with T47D, 2100 nM; in the test on OVCAR3 it was 2000 nM; with MO59J, 2100 nM; in the test on A2780, 600 nM. This compound came in with a half-maximal inhibitory concentration (IC50) with B16 of 400 nM. In test [2], the “Cleavage of PARP (apoptosis)” value is listed as “detected”. Moreover, the “Cellular levels of IRS1” value with IRS1 is listed as “induce a decrease in the cellular levels”. Further, in the test with IRS1, the “IRS1 Ser-phosphorylation” value is “increase in IRS1 Ser-phosphorylation”.
For the compound `N#C/C(=C\c1cc(O)c(O)c(Br)c1)C(=S)NCc1cc(O)c(O)c(Br)c1` [Compound 6], the “Apoptosis (cleaved PARP detection)” value in test [1] is on record as “undergo apoptosis”. Besides, the 50% inhibitory concentration (IC50) with U87MG is above 10 µM; in the test with PC3-MM2, above 10000 nM; with T47D it was above 10000 nM; in the test with OVCAR3, above 10000 nM; in the test on MO59J, 8300 nM; with A2780, 6800 nM. Besides, the concentration for half-maximal inhibition (IC50) in the test with B16 worked out at 800 nM. Further, the “Cellular levels of IRS1” value with IRS1 was “has no effect”.

The values are drawn from patent publication US8058309B2, “Protein kinase modulators and therapeutic uses thereof” (Novotyr Therapeutics Ltd., priority 2006, dated 2011).
